Experimental data reported in US4699928A, “Fluoroallylamine derivatives” (Merrell Dow Pharmaceuticals Inc., priority 1986, dated 1987).

What was measured:
[1] = tested on: heart monoamines and their metabolites; experiment: Inhibition of MAO in vivo: heart monoamines and their metabolites (HPLC); design: species or system male Sprague-Dawley rats; NE, Table V (heart) / DOPAC, Table V (heart) / 5HT, Table V (heart) / 5HIAA, Table V (heart): unit not given beside the values; details: for 5HIAA, Table V (heart) / DOPAC, Table V (heart) / NE, Table V (heart) / HVA, Table V (heart) / 5HT, Table V (heart): 18 h; for 5HIAA, Table V (heart): control 7 ± 1; for DOPAC, Table V (heart): control 78 ± 22; for NE, Table V (heart): control 735 ± 100; for HVA, Table V (heart): control 38 ± 9; for 5HT, Table V (heart): control 808 ± 50
Experimental: (§1) The ability of a compound of Formula I to inhibit MAO can be determined in vivo using brain and heart samples obtained from the ex vivo study reported in Example 9. Monoamines and their deaminated metabolites were determined by HPLC with electrochemical detection by the method of J. Wagner et al, J. Neurochem. 38 1241-1254.
(§2) When (Z)-2-(2',4'-dichlorophenoxy)methyl-3-fluoroallylamine is tested according to the above-described procedure, the results given in Tables IV and V are obtained. In these tables the following abbreviations are used: […]

[2] = tested on: brain monoamines and their metabolites; experiment: Inhibition of MAO in vivo: brain monoamines and their metabolites (HPLC); design: species or system male Sprague-Dawley rats; details: for DOPAC, brain / HVA, brain / 5HIAA, brain / NE, brain / 5-HT, brain / DA (dopamine), brain: 18 h, ± S.E.M.; for DOPAC, brain: control 80 ± 3; for HVA, brain: control 81 ± 3; for 5HIAA, brain: control 347 ± 8; for NE, brain: control 369 ± 18; for 5-HT, brain: control 1156 ± 52; for DA (dopamine), brain: control 840 ± 27
Experimental: as §1, §2

MAO [3] = experiment: Inhibition of MAO in vitro, partially purified rat brain mitochondria, 14C p-tyramine substrate; type: biochemical; details: tested as hydrochloride salt
Excerpt: Inhibition of MAO--In vitro testing
(A) The ability of a compound of Formula I to inhibit MAO can be determined in vitro by the method of A. Christmas et al., Br. J. Pharmacol., 45, 490 (1972) in partially purified mitochondria from rat brain using ^14 C p-tyramine as the substrate. The MAO inhibitory activity of a compound is expressed as the "IC50 " value, which is the molar concentration required to produce 50% inhibition of the enzyme.

[4] = tested on: heart rate response to p-tyramine; experiment: Cheese effect: potentiation of response to intravenous p-tyramine, pithed rats; type: in vivo, male Sprague-Dawley rats; details: for Potentiation of heart rate response to p-tyramine: 18 h, p-tyramine i.v.
Experimental: The following test procedures can be employed to assess the potential of a compound of Formula I for producing the "cheese effect": […]
Eighteen hours later the animals are anaesthetized with pentobarbitone (60 mg/kg i.p.), in some instances pithed, and in all cases set up for recording heart rate and blood pressure by standard techniques.

MAO-B versus MAO-A = experiment: Selectivity of inhibition of MAO-B versus MAO-A in vitro (14C phenethylamine / 14C 5-hydroxytryptamine); type: biochemical; details: rat, brain mitochondria
Experimental: Mitochondria are prepared from rat brain by homogenation in phosphate buffer (0.1 M, pH 7.2) followed by differential centrifugation. The mitochondria are suspended in the same buffer, the test compound is added at the desired concentration, and the system is incubated. At different time intervals, aliquots are taken and MAO activity is measured using ^14 C p-tyramine (a mixed substrate) as the substrate (See A. Christmas et al., supra).
(C) The selectivity of a compound of Formula I with respect to inhibition of MAO-A and MAO-B can be determined by repeating the procedure of Part B and measuring the MAO activity using ^14 C 5-hydroxytryptamine (a preferred substrate for MAO-A) and ^14 C phenethylamine (a preferred substrate for MAO-B) as the substrate.

MAO-A = experiment: Inhibition of MAO-A ex vivo; type: in vivo, male Sprague-Dawley rats; details: p.o.; 1080 min
Experimental: (§3) The ability of a compound of Formula I to inhibit MAO can be determined ex vivo by the following procedure:
(§4) The test compound is administered orally (p.o.) to 300-350 g male Sprague-Dawley rats (Charles River, France) and the animals are killed 18 hours after treatment. The brain, heart, liver and/or duodenum is removed and either a crude homogenate or a mitochondrial fraction, described in Example 5, Part (A), is prepared. MAO activity is determined in the homogenates using ^14 C p-tyramine, as the substrate. Table III gives the results of the testing of (Z)-2-(2',4'-dichlorophenoxy)methyl-3-fluoroallylamine according to the above described procedure. Selectivity can be determined by repeating the above-described test using either ^14 C […] (for MAO-A) or ^14 C phenethylamine (for MAO-B) as the substrate for determining the percentage inhibition.

MAO [5] = experiment: Inhibition of MAO ex vivo, p-tyramine as substrate; type: in vivo, male Sprague-Dawley rats; details: 18 h, 14C p-tyramine
Experimental: as §3, §4

For `NC/C(=C/F)COc1ccc(Cl)cc1Cl` [(z)-2-(2',4'-dichlorophenoxy)methyl-3-fluoroallylamine], the “5HIAA, Table V (heart)” value ([1]; 1 mg/kg p.o.) was 16 ± 4, the “DOPAC, Table V (heart)” value ([1]; 1 mg/kg p.o.) was 56 ± 11 and the “NE, Table V (heart)” value ([1]; 1 mg/kg p.o.) was 741 ± 56. For the same compound, the “HVA, Table V (heart)” value ([1]; 1 mg/kg p.o., p <0.02) was 71 ± 6, the “5HT, Table V (heart)” value ([1]; 1 mg/kg p.o., spread ± 79) was 1017 and the “5HIAA, Table V (heart)” value ([1]; 2.5 mg/kg p.o.) was 7 ± 1. For the same compound, the “HVA, Table V (heart)” value ([1]; 2.5 mg/kg p.o.) was 53 ± 8, the “DOPAC, Table V (heart)” value ([1]; 2.5 mg/kg p.o.) was 46 ± 12 and the “NE, Table V (heart)” value ([1]; 2.5 mg/kg p.o.) was 762 ± 20. The “5HT, Table V (heart)” value ([1]; 2.5 mg/kg p.o., spread ± 108) was 995, the “5HIAA, Table V (heart)” value ([1]; 5 mg/kg p.o.) was 20 ± 6 and the “HVA, Table V (heart)” value ([1]; 5 mg/kg p.o.) was 60 ± 16. The “DOPAC, Table V (heart)” value ([1]; 5 mg/kg p.o.) was 56 ± 7, the “NE, Table V (heart)” value ([1]; 5 mg/kg p.o.) was 875 ± 53 and the “5HT, Table V (heart)” value ([1]; 5 mg/kg p.o., spread ± 154) was 1018. The “5HIAA, Table V (heart)” value ([1]; 10 mg/kg p.o.) was 14 ± 2, the “HVA, Table V (heart)” value ([1]; 10 mg/kg p.o.) was 55 ± 3 and the “DOPAC, Table V (heart)” value ([1]; 10 mg/kg p.o.) was 62 ± 5. For the same compound, the “NE, Table V (heart)” value ([1]; 10 mg/kg p.o.) was 729 ± 58, the “5HT, Table V (heart)” value ([1]; 10 mg/kg p.o., spread ± 82) was 850 and the “DOPAC, Table V (heart)” value ([1]; 25 mg/kg p.o.) was 87 ± 27. For the same compound, the “NE, Table V (heart)” value ([1]; 25 mg/kg p.o.) was 765 ± 50, the “5HIAA, Table V (heart)” value ([1]; 25 mg/kg p.o., p <0.02) was 26 ± 4 and the “HVA, Table V (heart)” value ([1]; 25 mg/kg p.o., p <0.02) was 65 ± 4. The “5HT, Table V (heart)” value ([1]; 25 mg/kg p.o., spread ± 113) was 685, the “monoamines or their metabolites in the heart, in words” value ([1]; 1-25 mg/kg p.o.) was “no consistent changes” and the “DOPAC, brain” value ([2]; 1 mg/kg p.o.) was 75 ± 11 ng/g. The “HVA, brain” value ([2]; 1 mg/kg p.o.) was 94 ± 15 ng/g, the “5HIAA, brain” value ([2]; 1 mg/kg p.o.) was 371 ± 19 ng/g and the “NE, brain” value ([2]; 1 mg/kg p.o.) was 386 ± 18 ng/g. For the same compound, the “5-HT, brain” value ([2]; 1 mg/kg p.o.) was 1218 ± 66 ng/g, the “DA (dopamine), brain” value ([2]; 1 mg/kg p.o., p <0.05) was 945 ± 35 ng/g and the “DOPAC, brain” value ([2]; 2.5 mg/kg p.o.) was 70 ± 6 ng/g. For the same compound, the “HVA, brain” value ([2]; 2.5 mg/kg p.o.) was 75 ± 7 ng/g, the “5HIAA, brain” value ([2]; 2.5 mg/kg p.o.) was 337 ± 15 ng/g and the “NE, brain” value ([2]; 2.5 mg/kg p.o.) was 409 ± 4 ng/g. For the same compound, the “DA (dopamine), brain” value ([2]; 2.5 mg/kg p.o.) was 896 ± 31 ng/g, the “5-HT, brain” value ([2]; 2.5 mg/kg p.o.) was 1119 ± 64 ng/g and the “HVA, brain” value ([2]; 5 mg/kg p.o.) was 83 ± 7.2 ng/g. For the same compound, the “NE, brain” value ([2]; 5 mg/kg p.o.) was 415 ± 18 ng/g, the “5-HT, brain” value ([2]; 5 mg/kg p.o.) was 1340 ± 116 ng/g and the “DOPAC, brain” value ([2]; 5 mg/kg p.o., p <0.01) was 65 ± 3 ng/g. For the same compound, the “DA (dopamine), brain” value ([2]; 5 mg/kg p.o., p <0.02) was 943 ± 21 ng/g, the “5HIAA, brain” value ([2]; 5 mg/kg p.o., p <0.05) was 379 ± 10 ng/g and the “5HIAA, brain” value ([2]; 10 mg/kg p.o.) was 343 ± 14 ng/g. For the same compound, the “DA (dopamine), brain” value ([2]; 10 mg/kg p.o.) was 875 ± 16 ng/g, the “5-HT, brain” value ([2]; 10 mg/kg p.o.) was 1297 ± 100 ng/g and the “HVA, brain” value ([2]; 10 mg/kg p.o., p <0.02) was 53 ± 10 ng/g. The “NE, brain” value ([2]; 10 mg/kg p.o., p <0.02) was 439 ± 15 ng/g, the “5-HT, in words” value ([2]; 25 mg/kg dose) was “Significant increases” and the “HVA, brain” value ([2]; 25 mg/kg p.o.) was 75 ± 8 ng/g. The “NE, brain” value ([2]; 25 mg/kg p.o., p <0.001) was 496 ± 12 ng/g, the “DA (dopamine), brain” value ([2]; 25 mg/kg p.o., p <0.001) was 1087 ± 29 ng/g and the “5-HT, brain” value ([2]; 25 mg/kg p.o., p <0.001) was 1623 ± 48 ng/g. For the same compound, the “5HIAA, brain” value ([2]; 25 mg/kg p.o., p <0.005) was 404 ± 12 ng/g, the “DOPAC, brain” value ([2]; 25 mg/kg p.o., p <0.01) was 54 ± 6 ng/g and the “Norepinephrine (NE) concentrations, in words” value ([2]; 10 and 25 mg/kg dose) was “increased significantly”. For the same compound, the “dihydroxyphenylacetic acid in the brain, in words” value ([2]; following the 5 mg/kg dose) was “significant reductions”, the “dopamine in the brain, in words” value ([2]; following the 5 mg/kg dose) was “increases in dopamine” and the “selectivity of action, in words” value ([2]; lower doses (MAO-B) and higher doses (MAO-A)) was “selectivity of action against MAO-B at the lower doses and a small degree of MAO-A inhibition occurring at the higher doses”. For the same compound, the IC50 (MAO [3]) was 150 nM, the “Potentiation of heart rate response to p-tyramine” value ([4]; 10 mg/kg by mouth, in words) was “none” and the “cardiovascular responses to tyramine injected intravenously, in words” value ([4]; 10 mg/kg p.o. 18 h prior to testing) was “affected to only a small extent”. The “Potentiation of heart rate response to p-tyramine” value ([4]; 25 mg/kg by mouth) was 2.8 fold, the potentiation of tyramine ([4]; 25 mg/kg, two experiments) was 2-3 fold and the “Ratio B:A (inhibitory activity against MAO-B versus MAO-A)” value (MAO-B versus MAO-A) was 200. The “dose needed to inhibit MAO-A activity by more than 50%” value (MAO-A) was “greater than 5 mg/kg”, the “% Inhibition, Brain (1)” value (MAO [5]; 1 mg/kg po) was 41% and the “% Inhibition, Duodenum (1)” value (MAO [5]; 1 mg/kg po) was 10%. The “% Inhibition, Heart (1)” value (MAO [5]; 1 mg/kg po) was 27%, the “% Inhibition, Liver (1)” value (MAO [5]; 1 mg/kg po) was 0% and the “% Inhibition, Brain (1)” value (MAO [5]; 2.5 mg/kg po) was 23%. For the same compound, the “% Inhibition, Duodenum (1)” value (MAO [5]; 2.5 mg/kg po) was 26%, the “% Inhibition, Heart (1)” value (MAO [5]; 2.5 mg/kg po) was 0% and the “% Inhibition, Liver (1)” value (MAO [5]; 2.5 mg/kg po) was 9%. The “% Inhibition, Brain (1)” value (MAO [5]; 5 mg/kg po) was 34%, the “% Inhibition, Duodenum (1)” value (MAO [5]; 5 mg/kg po) was 55% and the “% Inhibition, Heart (1)” value (MAO [5]; 5 mg/kg po) was 0%. For the same compound, the “% Inhibition, Liver (1)” value (MAO [5]; 5 mg/kg po) was 21%, the “% Inhibition, Brain (1)” value (MAO [5]; 10 mg/kg po) was 55% and the “% Inhibition, Duodenum (1)” value (MAO [5]; 10 mg/kg po) was 57%. The “% Inhibition, Heart (1)” value (MAO [5]; 10 mg/kg po) was 0%, the “% Inhibition, Liver (1)” value (MAO [5]; 10 mg/kg po) was 25% and the “% Inhibition, Brain (1)” value (MAO [5]; 25 mg/kg po) was 73%. For the same compound, the “% Inhibition, Duodenum (1)” value (MAO [5]; 25 mg/kg po) was 65%, the “% Inhibition, Heart (1)” value (MAO [5]; 25 mg/kg po) was 32% and the “% Inhibition, Liver (1)” value (MAO [5]; 25 mg/kg po) was 55%.
